According to patent US10239849B2 (Merck Sharp & Dohme Corp., priority 2015, dated 2019):

How the values were obtained:
[1] = molecular target: T1, glutathione-S-transferase (GST) tagged LXRalpha LBD (ligand binding domain) (Homo sapiens, UniProt Q13133); experiment: LanthaScreen TR-FRET Liver X Receptor Coactivator Assay, LXR alpha-LBD; type: biochemical; settings: for Emax: efficacy in relation to reference dual agonist T1317, read-out: LXR alpha activity at max dose (%) (Emax); for EC50 / LXR alpha IP (nM): potency (Inflection Point) of co-activator recruitment, TR-FRET; for EC50: read-out: LXR alpha IP
T1 construct: purchased Invitrogen pv4655
T1 sequence (Q13133 209-447 limits assumed): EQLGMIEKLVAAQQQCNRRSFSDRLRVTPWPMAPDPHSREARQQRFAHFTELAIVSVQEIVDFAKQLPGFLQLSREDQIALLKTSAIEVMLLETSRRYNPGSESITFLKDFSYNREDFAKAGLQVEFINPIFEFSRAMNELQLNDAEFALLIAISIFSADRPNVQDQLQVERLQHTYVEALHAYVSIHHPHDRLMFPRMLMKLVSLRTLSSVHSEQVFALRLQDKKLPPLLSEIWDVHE
Description: (§1) While running the LanthaScreen™ TR-FRET Liver X Receptor Coactivator Assay, LXR alpha-LBD or LXR beta-LBD was added to ligand test compounds followed by addition of a mixture of a fluorescein-labelled coactivator peptide and terbium-conjugated anti-GST antibody. After an incubation period at room temperature, TR-FRET (time-resolved fluorescence resonance energy transfer) was measured using a filter-based instrument capable of TR-FRET, e.g. PerkinElmer Envision.

[2] = molecular target: T2, glutathione-S-transferase (GST) tagged LXRbeta LBD (ligand binding domain) (Homo sapiens, UniProt P55055); experiment: LanthaScreen TR-FRET Liver X Receptor Coactivator Assay, LXR beta-LBD; type: biochemical; settings: for Emax: efficacy in relation to reference dual agonist T1317, read-out: LXR beta activity at max dose (%) (Emax); for EC50: potency (Inflection Point) of co-activator recruitment, TR-FRET, read-out: LXR beta IP
T2 construct: purchased Invitrogen pv4658.pps
T2 sequence (P55055 222-460 limits assumed): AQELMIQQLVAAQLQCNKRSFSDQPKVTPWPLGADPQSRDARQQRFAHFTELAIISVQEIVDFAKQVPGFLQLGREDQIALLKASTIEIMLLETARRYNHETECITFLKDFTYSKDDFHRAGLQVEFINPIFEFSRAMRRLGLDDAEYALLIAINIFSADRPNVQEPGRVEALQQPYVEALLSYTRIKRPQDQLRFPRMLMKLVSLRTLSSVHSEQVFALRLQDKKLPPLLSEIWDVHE
Description: as §1

SMILES | Emax [1] | EC50 [1] | Emax [2] | EC50 [2] | LXR alpha IP (nM) [1]
CN(C)C(=O)c1ccc(-c2cnc(N3CCN(C(=O)Cc4cn5ccsc5n4)CC3)c(C#N)c2)cc1Cl [Example 2-24, 2-chloro-4-{5-cyano-6-[4-(imidazo[2,1-b][1,3]thiazol-6-ylacetyl)piperazin-1-yl]pyridin-3-yl}-N,N-dimethylbenzamide] | 42% | 29600 nM | 104% | 463 nM | –
CCCC(O)(C(=O)N1CCN(c2ncc(-c3ccc(C(=O)N(C)C)c(Cl)c3)cc2C#N)CC1)C(F)(F)F (stereo not drawn) [Example 2-25, 2-chloro-4-(5-cyano-6-{4-[2-hydroxy-2-(trifluoromethyl)pentanoyl]piperazin-1-yl}pyridin-3-yl)-N,N-dimethylbenzamide] | 53% | 4150 nM | 100% | 94 nM | –
CN(C)C(=O)c1ccc(-c2cnc(N3CCN(C(=O)C4(c5ccccc5)CCCC4)CC3)c(C#N)c2)cc1Cl [Example 2-26, 2-chloro-4-(5-cyano-6-{4-[(1-phenylcyclopentyl)carbonyl]piperazin-1-yl}pyridin-3-yl)-N,N-dimethylbenzamide] | 25% | 1990 nM | 84% | 43 nM | –
CN(C)C(=O)c1ccc(-c2ccc(N3CCN(C(=O)[C@](O)(c4ccccc4)C(F)(F)F)CC3)cc2)cc1Cl [Example 2-27, 3-chloro-N,N-dimethyl-4′-{4-[(2R)-3,3,3-trifluoro-2-hydroxy-2-phenylpropanoyl]piperazin-1-yl}biphenyl-4-carboxamide] | 14% | – | 80% | 226 nM | No IP
CNC(=O)c1ccc(-c2cnc(N3CCN(C(=O)[C@](O)(c4ccccc4)C(F)(F)F)CC3)c(C#N)c2)cc1Cl [Example 2-28, 2-chloro-4-(5-cyano-6-{4-[(2R)-3,3,3-trifluoro-2-hydroxy-2-phenylpropanoyl]piperazin-1-yl}pyridin-3-yl)-N-methylbenzamide] | 30% | 1930 nM | 98% | 12 nM | –
CN(C)C(=O)c1ccc(-c2cnc(N3CCN(C(=O)C4(c5ccccc5F)CCCC4)CC3)c(C#N)c2)cc1Cl [Example 2-29, 2-chloro-4-[5-cyano-6-(4-{[1-(2-fluorophenyl)cyclopentyl]carbonyl}piperazin-1-yl)pyridin-3-yl]-N,N-dimethylbenzamide] | 57% | 4230 nM | 93% | 15 nM | –
CN(C)C(=O)c1ccc(-c2cnc(N3CCN(C(=O)C(O)(C(F)(F)F)C(F)(F)F)CC3)c(C#N)c2)cc1Cl [Example 2-30, 2-chloro-4-(5-cyano-6-{4-[3,3,3-trifluoro-2-hydroxy-2-(trifluoromethyl)propanoyl]piperazin-1-yl}pyridin-3-yl)-N,N-dimethylbenzamide] | 66% | 5290 nM | 125% | 6 nM | –
CN(C)C(=O)c1ccc(-c2cnc(N3CCN(C(=O)[C@@](O)(c4ccccc4)C(F)(F)F)CC3)c(C#N)c2)cc1Cl [Example 2-31, 2-chloro-4-(5-cyano-6-{4-[(2S)-3,3,3-trifluoro-2-hydroxy-2-phenylpropanoyl]piperazin-1-yl}pyridin-3-yl)-N,N-dimethylbenzamide] | 12% | 7290 nM | 68% | 307 nM | –
CN(C)C(=O)c1ccc(-c2cnc(N3CCN(C(=O)C(O)(c4ccccc4)C(F)(F)F)CC3)c(C#N)c2)cc1Cl (stereo not drawn) [Example 2-32, 2-chloro-4-{5-cyano-6-[4-(3,3,3-trifluoro-2-hydroxy-2-phenylpropanoyl)piperazin-1-yl]pyridin-3-yl}-N,N-dimethylbenzamide] | 37% | 3050 nM | 98% | 4 nM | –
CN(C)C(=O)c1ccc(-c2cnc(N3CCN(C(=O)C(O)(C4CCCCC4)C(F)(F)F)CC3)c(C#N)c2)cc1Cl (stereo not drawn) [Example 2-33, 2-chloro-4-{5-cyano-6-[4-(2-cyclohexyl-3,3,3-trifluoro-2-hydroxypropanoyl)piperazin-1-yl]pyridin-3-yl}-N,N-dimethylbenzamide] | 27% | 3290 nM | 115% | 162 nM | –
CN(C)C(=O)c1ccc(-c2cnc(N3CCN(C(=O)C4(c5ccc(Cl)cc5Cl)CC4)CC3)c(C#N)c2)cc1Cl [Example 2-34, 2-chloro-4-[5-cyano-6-(4-{[1-(2,4-dichlorophenyl)cyclopropyl]carbonyl}piperazin-1-yl)pyridin-3-yl]-N,N-dimethylbenzamide] | 49% | 12700 nM | 88% | 25 nM | –
CO[C@@](C(=O)N1CCN(c2ncc(-c3ccc(C(=O)N(C)C)c(Cl)c3)cc2C#N)CC1)(c1ccccc1)C(F)(F)F [Example 2-35, 2-chloro-4-(5-cyano-6-{4-[(2R)-3,3,3-trifluoro-2-methoxy-2-phenylpropanoyl]piperazin-1-yl}pyridin-3-yl)-N,N-dimethylbenzamide] | 62% | 54100 nM | 70% | 75 nM | –
CCCC(O)(C(=O)N1CCN(c2ncc(-c3ccc(C(=O)N(C)C)c(Cl)c3)cc2C#N)CC1)C(F)(F)C(F)(F)F (stereo not drawn) [Example 2-36, 2-chloro-4-(5-cyano-6-{4-[2-hydroxy-2-(pentafluoroethyl)pentanoyl]piperazin-1-yl}pyridin-3-yl)-N,N-dimethylbenzamide] | 36% | 5130 nM | 81% | 205 nM | –
CN(C)C(=O)c1ccc(-c2cnc(N3CCN(C(=O)C(O)(CCc4ccccc4)C(F)(F)F)CC3)c(C#N)c2)cc1Cl (stereo not drawn) [Example 2-37, 2-chloro-4-(5-cyano-6-{4-[2-hydroxy-4-phenyl-2-(trifluoromethyl)butanoyl]piperazin-1-yl}pyridin-3-yl)-N,N-dimethylbenzamide] | 55% | 97600 nM | 58% | 735 nM | –
CN(C)C(=O)c1ccc(-c2cnc(N3CCN(C(=O)C(O)(c4ccccc4Cl)C(F)(F)F)CC3)c(C#N)c2)cc1Cl (stereo not drawn) [Example 2-38, 2-chloro-4-(6-{4-[2-(2-chlorophenyl)-3,3,3-trifluoro-2-hydroxypropanoyl]piperazin-1-yl}-5-cyanopyridin-3-yl)-N,N-dimethylbenzamide] | 18% | 292 nM | 69% | 13 nM | –
CN(C)C(=O)c1ccc(-c2cnc(N3CCN(C(=O)OCc4c(Cl)cccc4Cl)CC3)c(C#N)c2)cc1Cl [Example 3-1, 2,6-dichlorobenzyl4-{5-[3-chloro-4-(dimethylcarbamoyl)phenyl]-3-cyanopyridin-2-yl}piperazine-1-carboxylate] | 60% | 2310 nM | 119% | 12 nM | –
CC(C)COC(=O)N1CCN(c2ncc(-c3ccc(C(=O)N(C)C)c(Cl)c3)cc2C#N)CC1 [Example 3-2, 2-methylpropyl 4-{5-[3-chloro-4-(dimethylcarbamoyl)phenyl]-3-cyanopyridin-2-yl}piperazine-1-carboxylate] | 19% | – | 41% | 1560 nM | No IP
CN(C)C(=O)c1ccc(-c2cnc(N3CCN(C(=O)OCc4cncs4)CC3)c(C#N)c2)cc1Cl [Example 3-3, 1,3-thiazol-5-ylmethyl 4-{5-[3-chloro-4-(dimethylcarbamoyl)phenyl]-3-cyanopyridin-2-yl}piperazine-1-carboxylate] | 42% | 19800 nM | 62% | 217 nM | –
